Reference: the NIST ThermoML archive (doi:10.1016/j.jct.2018.02.018)
Numbers after ± are expanded uncertainties.

What was measured:
[1] = refractive index (Na D-line) (dimensionless); xn = mol fraction of the nth substance listed; settings: 100 kPa, Liquid, Standard Abbe refractometry
[2] = xn = mol fraction of the nth substance listed; settings: 100 kPa, Liquid; for speed of sound: Frequency=3 MHz, Single path-length method; for mass density: Vibrating tube method

NCc1ccccc1 [benzylamine] + C[S+](C)[O-]
Settings | mass density, [2] [kg/m3] | refractive index, [1] | speed of sound, [2] [m/s]
293.15 K, x2 = 0 | 983 ± 4 | 1.544 ± 0.006 | 1579.7 ± 1.7
293.15 K, x2 = 0.1031 | 992 ± 4 | 1.54 ± 0.006 | 1578.5 ± 1.7
293.15 K, x2 = 0.1998 | 1001 ± 4 | 1.536 ± 0.006 | 1575.9 ± 1.6
293.15 K, x2 = 0.2979 | 1011 ± 4 | 1.532 ± 0.006 | 1571.1 ± 1.6
293.15 K, x2 = 0.399 | 1021 ± 4 | 1.526 ± 0.006 | 1565.5 ± 1.6
293.15 K, x2 = 0.4991 | 1032 ± 4 | 1.52 ± 0.006 | 1558.8 ± 1.6
293.15 K, x2 = 0.5886 | 1043 ± 4 | 1.515 ± 0.006 | 1551.6 ± 1.5
293.15 K, x2 = 0.6999 | 1056 ± 4 | 1.507 ± 0.006 | 1540.9 ± 1.5
293.15 K, x2 = 0.8029 | 1070 ± 4 | 1.498 ± 0.006 | 1530 ± 1.5
293.15 K, x2 = 0.8991 | 1084 ± 4 | 1.49 ± 0.006 | 1517.7 ± 1.5
293.15 K, x2 = 0.9493 | 1092 ± 4 | 1.485 ± 0.006 | 1510.6 ± 1.5
303.15 K, x2 = 0 | 974 ± 4 | 1.539 ± 0.006 | 1540.2 ± 1.7
303.15 K, x2 = 0.1031 | 983 ± 4 | 1.535 ± 0.006 | 1539.3 ± 1.7
303.15 K, x2 = 0.1998 | 992 ± 4 | 1.531 ± 0.006 | 1536.1 ± 1.6
303.15 K, x2 = 0.2979 | 1002 ± 4 | 1.527 ± 0.006 | 1533.5 ± 1.6
303.15 K, x2 = 0.399 | 1012 ± 4 | 1.522 ± 0.006 | 1527.6 ± 1.6
303.15 K, x2 = 0.4991 | 1023 ± 4 | 1.516 ± 0.006 | 1521.6 ± 1.6
303.15 K, x2 = 0.5886 | 1033 ± 4 | 1.51 ± 0.006 | 1514.9 ± 1.5
303.15 K, x2 = 0.6999 | 1047 ± 4 | 1.502 ± 0.006 | 1504.8 ± 1.5
303.15 K, x2 = 0.8029 | 1061 ± 4 | 1.494 ± 0.006 | 1494.9 ± 1.5
303.15 K, x2 = 0.8991 | 1075 ± 4 | 1.485 ± 0.006 | 1483.3 ± 1.5
303.15 K, x2 = 0.9493 | 1082 ± 4 | 1.48 ± 0.006 | 1476.2 ± 1.5
313.15 K, x2 = 0 | 965 ± 4 | 1.534 ± 0.006 | 1500 ± 1.7
313.15 K, x2 = 0.1031 | 974 ± 4 | 1.53 ± 0.006 | 1500.2 ± 1.7
313.15 K, x2 = 0.1998 | 983 ± 4 | 1.527 ± 0.006 | 1497.6 ± 1.6
313.15 K, x2 = 0.2979 | 993 ± 4 | 1.522 ± 0.006 | 1494.6 ± 1.6
313.15 K, x2 = 0.399 | 1003 ± 4 | 1.517 ± 0.006 | 1490.3 ± 1.6
313.15 K, x2 = 0.4991 | 1014 ± 4 | 1.511 ± 0.006 | 1484.8 ± 1.6
313.15 K, x2 = 0.5886 | 1024 ± 4 | 1.505 ± 0.006 | 1478.6 ± 1.5
313.15 K, x2 = 0.6999 | 1038 ± 4 | 1.498 ± 0.006 | 1469.2 ± 1.5
313.15 K, x2 = 0.8029 | 1051 ± 4 | 1.489 ± 0.006 | 1460 ± 1.5
313.15 K, x2 = 0.8991 | 1065 ± 4 | 1.481 ± 0.006 | 1448.6 ± 1.5
313.15 K, x2 = 0.9493 | 1072 ± 4 | 1.476 ± 0.006 | 1442.2 ± 1.5
323.15 K, x2 = 0 | 957 ± 4 | 1.529 ± 0.006 | 1461.1 ± 1.7
323.15 K, x2 = 0.1031 | 966 ± 4 | 1.526 ± 0.006 | 1461.4 ± 1.7
323.15 K, x2 = 0.1998 | 974 ± 4 | 1.522 ± 0.006 | 1459.4 ± 1.6
323.15 K, x2 = 0.2979 | 984 ± 4 | 1.517 ± 0.006 | 1457.4 ± 1.6
323.15 K, x2 = 0.399 | 994 ± 4 | 1.512 ± 0.006 | 1453.3 ± 1.6
323.15 K, x2 = 0.4991 | 1005 ± 4 | 1.506 ± 0.006 | 1448.4 ± 1.6
323.15 K, x2 = 0.5886 | 1015 ± 4 | 1.501 ± 0.006 | 1442.7 ± 1.5
323.15 K, x2 = 0.6999 | 1028 ± 4 | 1.493 ± 0.006 | 1434 ± 1.5
323.15 K, x2 = 0.8029 | 1042 ± 4 | 1.485 ± 0.006 | 1425.3 ± 1.5
323.15 K, x2 = 0.8991 | 1055 ± 4 | 1.476 ± 0.006 | 1414.6 ± 1.5
323.15 K, x2 = 0.9493 | 1062 ± 4 | 1.471 ± 0.006 | 1408.5 ± 1.5
